PMC5762309 (Oncotarget, 2017)

How the values were obtained:
Assay type in all cases: cell-based
Details in all cases: Mus musculus, 72 hours, CellTiter-Glo
BaF3-tel-KIT-T670I-V559D = experiment: Anti-proliferation assay, transformed BaF3 cells
Source text: (§1) Retroviral constructs for BaF3-KIT mutants were made based on the pMSCVpuro (Clontech) backbone. For TEL-KIT vector, the first 1 kb of human TEL gene with an artificial myristoylation sequence ([…]) was cloned into the pMSCVpuro retroviral vector, followed by a 3xFLAG tag sequence. Then, the kinase domain coding sequence of KIT was inserted in-frame between TEL and 3xFLAG sequences. For full-length expression vectors, the coding sequences of KIT variants were directly cloned in pMSCVpuro vector with a 3xFLAG tag at the C-terminal end. All mutagenesis was performed using the QuikChange Site-Directed Mutagenesis Kit (Stratagene) following the manufacturer’s instructions. Retrovirus was packaged in HEK293T cells by transfecting KIT-containing MSCV vectors together with two helper plasmids. Virus supernatants were harvested 48 h after transfection and filtered before infection. Then BaF3 cells were infected with harvested virus supernatants using spinoculation protocol, and stable cell lines were obtained by puromycin selection for 48 h. The IL-3 concentrations in the culture medium were gradually withdrawn until cells were able to grow in the absence of IL-3.
(§2) Cells were grown in 96-well culture plates (2500/well). The compounds of various concentrations were added into the plates. Cell proliferation was determined after treatment with compounds for 72 hours. Cell viability was measured using the CellTiter–Glo assay (Promega, USA), according to the manufacturer’s instructions, and luminescence was measured in a multi-label reader (Envision, PerkinElmer, USA). Data were normalized to control groups (DMSO) and represented by the mean of three independent measurements with standard error <20%. GI50 values were calculated using Prism 5.0 (GraphPad Software, San Diego, CA).

BaF3-tel-KIT-V559D-V654A = experiment: Anti-proliferation assay, transformed BaF3 cells
Source text: as §1, §2

BaF3-tel-KIT-L576P = experiment: Anti-proliferation assay, transformed BaF3 cells
Source text: as §1, §2

BaF3-tel-KIT-T670I = experiment: Anti-proliferation assay, transformed BaF3 cells
Source text: as §1, §2

BaF3-tel-KIT = experiment: Anti-proliferation assay, transformed BaF3 cells
Source text: as §1, §2

BaF3-tel-KIT-D816V = experiment: Anti-proliferation assay, transformed BaF3 cells
Source text: as §1, §2

BaF3-tel-KIT-A829P = experiment: Anti-proliferation assay, transformed BaF3 cells
Source text: as §1, §2

BaF3-tel-KIT-N822K = experiment: Anti-proliferation assay, transformed BaF3 cells
Source text: as §1, §2

BaF3-tel-KIT-V654A = experiment: Anti-proliferation assay, transformed BaF3 cells
Source text: as §1, §2

BaF3-tel-KIT-V559D = experiment: Anti-proliferation assay, transformed BaF3 cells
Source text: as §1, §2

BaF3 = experiment: Anti-proliferation assay, parental BaF3 cells
Procedure: The KIT mutant isogenic BaF3 cells lines and Colo320DM cells were cultured in RPMI 1640 media (Corning, USA) with 10% fetal bovine serum (FBS) and supplemented with 2% L-glutamine 1% penicillin/streptomycin, the BaF3 cell line was cultured in RPMI 1640 media (Corning, USA) with 1% IL-3, 10% fetal bovine serum (FBS) and supplemented with 2% L-glutamine 1% penicillin/streptomycin. All cell lines were maintained in culture media at 37°C with 5% CO2.

## CCN(CC)CCNC(=O)c1c(C)[nH]c(/C=C2\C(=O)Nc3ccc(F)cc32)c1C [Sunitinib, reference compound]
BaF3-tel-KIT-T670I-V559D
  GI50: 7 nM
BaF3-tel-KIT-V559D-V654A
  GI50: 6 nM
BaF3-tel-KIT-L576P
  GI50: 3 nM
BaF3-tel-KIT-T670I
  GI50: 1 nM
BaF3-tel-KIT
  GI50: 60 nM
BaF3-tel-KIT-D816V
  GI50: 420 nM
BaF3-tel-KIT-A829P
  GI50: 130 nM
BaF3-tel-KIT-N822K
  GI50: 120 nM
BaF3-tel-KIT-V654A
  GI50: 2 nM
BaF3-tel-KIT-V559D
  GI50: < 0.3 nM
BaF3
  GI50: 1300 nM
